Here are results for 26 compounds from ChEMBL document CHEMBL3217522, “New substituted aryl esters and aryl amides of 3,4-dihydro-2H-1,2,4-benzothiadiazine 1,1-dioxides as positive allosteric modulators of AMPA receptors” (Medchemcomm, 2011).

Data set [1] concerns the target T1, Glutamate receptor ionotropic, AMPA (Rattus norvegicus) (UniProt P19491+P19492+P19493+P19490). The data set is described as follows: Positive allosteric modulation of AMPA receptor in embryonic rat brain cells assessed as potentiation of membrane depolarization after 3 mins by fluorescence assay relative to AMPA. The format is cell-based.
The target in data set [2] is T1, Glutamate receptor ionotropic, AMPA (Rattus norvegicus). The data set is described as follows: Positive allosteric modulation of AMPA receptor in embryonic rat brain cells assessed as concentration required for 2-fold increase in AMPA-induced membrane depolarization after 3 mins by fluorescence assay. Type of data set: cell-based.
In data set [3] the target is Glutamate receptor ionotropic, AMPA (Rattus norvegicus, UniProt P19490+P19491+P19492+P19493). Nature of the data set: Positive allosteric modulation of AMPA receptor in embryonic rat brain cells assessed as potentiation of AMPA-induced membrane depolarization after 3 mins by fluorescence assay. Type of data set: cell-based.
The nature of data set [4]: Stability of the compound in PBS at pH 7.4 at 1 mM after 24 hrs at 25 degC HPLC analysis. Type of data set: physicochemical. The conditions noted are these: buffer, pH 7.4, 24 h, 1000 µM.
Data set [5] in a line: Stability of the compound in PBS at pH 1 at 1 mM after 24 hrs at 25 degC HPLC analysis. Type of data set: physicochemical. As to conditions: buffer, pH 1, 24 h, 1000 µM.

The structures appear in SMILES notation.

With `CCN1CNS(=O)(=O)c2cc(C(=O)Oc3ccc(OC)cc3)ccc21`, in data set [1], the max activation is below 200%. Further, the Activity in data set [2] was above 100 µM.

Consider `CN1CNS(=O)(=O)c2cc(C(=O)Oc3ccccc3OCc3ccccc3)ccc21`, for which, in data set [1], the max activation is below 200%. Besides, the Activity in data set [2] was above 100 µM.

For `CCCc1ccccc1OC(=O)c1ccc2c(c1)S(=O)(=O)NCN2CC`, the max activation in data set [1] was below 200%. For the same compound, the Activity in data set [2] is above 100 µM.

Take `CCc1ccccc1OC(=O)c1ccc2c(c1)S(=O)(=O)NCN2C`: in data set [1], the max activation was below 200%. In addition, the Activity in data set [2] is above 100 µM.

`CCN1CNS(=O)(=O)c2cc(C(=O)Nc3ccccc3)ccc21`: the max activation in data set [1] was below 200%. Moreover, in data set [2], the Activity was above 100 µM.

Consider `CCN1CNS(=O)(=O)c2cc(C(=O)Oc3ccc(C)cc3)ccc21`, for which, in data set [1], the max activation was below 200%. The Activity in data set [2] is above 100 µM.

In the case of `CN1CNS(=O)(=O)c2cc(C(=O)Oc3ccccc3)ccc21`, the max activation in data set [1] amounted to 550%. In data set [2], the Activity was found to be 3.66 µM. For the same compound, in data set [3], the EC50 (commonly the concentration giving half of the maximal effect) was determined as 3.65 µM. The Stability entry in data set [4] and in data set [5] was “Stable” each time.

In the case of `Cc1cccc(OC(=O)c2ccc3c(c2)S(=O)(=O)NCN3C)c1`, in data set [1], the max activation is below 200%. In addition, the Activity in data set [2] is above 100 µM.

Consider `CCOc1ccccc1OC(=O)c1ccc2c(c1)S(=O)(=O)NCN2C`, for which the max activation in data set [1] was above 360%. In addition, the Activity in data set [2] worked out at 7.08 µM.

Consider `CCN1CNS(=O)(=O)c2cc(C(=O)Oc3cccc(C)c3)ccc21`, for which, in data set [1], the max activation is below 200%. For the same compound, the Activity in data set [2] is above 100 µM.

For the compound `CN1CNS(=O)(=O)c2cc(C(=O)Nc3ccccc3)ccc21`, the max activation in data set [1] is below 200%. Besides, the Activity in data set [2] was above 100 µM.

Consider `CCN1CNS(=O)(=O)c2cc(C(=O)OCc3ccccc3)ccc21`, for which, in data set [1], the max activation is below 200%. Besides, in data set [2], the Activity was above 100 µM.

Take `CCN1CNS(=O)(=O)c2cc(C(=O)Oc3ccccc3OC)ccc21`: the max activation in data set [1] came out at 380%. Besides, the Activity in data set [2] amounted to 10.6 µM.

Turning to `CN1CNS(=O)(=O)c2cc(C(=O)N(C)c3ccccc3)ccc21`, in data set [1], the max activation was below 200%. Besides, in data set [2], the Activity was above 100 µM.

Take `CCCc1ccc(OC(=O)c2ccc3c(c2)S(=O)(=O)NCN3CC)cc1`: the max activation in data set [1] is below 200%. Also, the Activity in data set [2] was above 100 µM.

For `CCN(C(=O)c1ccc2c(c1)S(=O)(=O)NCN2C)c1ccccc1`, the max activation in data set [1] was below 200%. Also, the Activity in data set [2] was above 100 µM.

As to `CCN1CNS(=O)(=O)c2cc(C(=O)Oc3cccc(OCc4ccccc4)c3)ccc21`, the max activation in data set [1] was below 200%. In data set [2], the Activity is above 100 µM.

As to `CCN1CNS(=O)(=O)c2cc(C(=O)OCCc3ccccc3)ccc21`, in data set [1], the max activation was below 200%. Moreover, in data set [2], the Activity is above 100 µM.

Regarding `CCOc1ccccc1OC(=O)c1ccc2c(c1)S(=O)(=O)NCN2CC`, the max activation in data set [1] is above 270%. For the same compound, in data set [2], the Activity is 21.6 µM.

Take `CCN1CNS(=O)(=O)c2cc(C(=O)Oc3ccccc3C)ccc21`: in data set [1], the max activation is 330%. For the same compound, in data set [2], the Activity amounted to 3.48 µM. Also, the EC50 in data set [3] came out at 3.91 µM.

For `COc1ccccc1OC(=O)c1ccc2c(c1)S(=O)(=O)NCN2`, in data set [1], the max activation was below 200%. Besides, the Activity in data set [2] was above 100 µM.

In the case of `COc1ccccc1OC(=O)c1ccc2c(c1)S(=O)(=O)NCN2C`, the max activation in data set [1] amounted to 410%. In data set [2], the Activity stood at 6.4 µM. The concentration giving a half-maximal response (EC50) in data set [3] was 7.27 µM.

`CCN1CNS(=O)(=O)c2cc(C(=O)Oc3ccccc3OCc3ccccc3)ccc21`: in data set [1], the max activation was below 200%. Also, in data set [2], the Activity was above 100 µM.

For `Cc1ccccc1OC(=O)c1ccc2c(c1)S(=O)(=O)NCN2C`, in data set [1], the max activation is 410%. Also, the Activity in data set [2] stood at 0.94 µM. Also, the EC50 in data set [3] came out at 1.72 µM.

In the case of `CCN1CNS(=O)(=O)c2cc(C(=O)Oc3cccc(OC)c3)ccc21`, the max activation in data set [1] was found to be 200%. The Activity in data set [2] was above 35 µM.

Turning to `CCc1ccccc1OC(=O)c1ccc2c(c1)S(=O)(=O)NCN2CC`, the max activation in data set [1] was below 200%. Moreover, the Activity in data set [2] is above 100 µM.
